Source: patent US11330999B2 (MEMORIAL SLOAN KETTERING CANCER CENTER, priority 2017, dated 2022)

How the values were obtained:
[1] = Thermal equilibrium T2 at high field (14.1T), CPMG; assay type: physicochemical; details: for T2 Value (s) D2O: 95:5 D2O:H2O, 100 mM Tris pD 7.4; for T2 Value (s) H2O: 100% H2O, 100 mM Tris pH 7.4
Experimental: (§1) [5-^13C]-glutamine (Cambridge Isotope Laboratories), [^13C]-urea (Sigma Aldrich), [^13C, ^15N2]-urea (Sigma Aldrich), [6-^13C]-arginine (Cambridge Isotope Laboratories), [5-^13C, ^15N]-glutamine (24) (24, as described in Example 7) and [6-^13C, ^15N3]-arginine (21, as described in Example 2) were evaluated to determine thermal equilibrium T1 and T2. An aliquot of each compound was dissolved in 95:5 D2O:H2O containing 100 mM Tris pD 7.4 and 100% H2O containing 100 mM Tris pH 7.4. [^13C]-urea and [^13C, ^15N2]-urea were dissolved to a final concentration of 100 mM.
(§2) ^13C NMR spectra for each compound dissolved in 95:5 D2O:H2O and 100% H2O was obtained with a 14.1T ^13C NMR (Bruker, USA). For inversion recovery experiments, 13 to 15 different delay times between the 180° and 90° pulses, spanning 3T1, were sampled. Each spectrum was an average of 3 to 4 scans, and a 5T1 to 6T1 pre-scan wait time was used to allow re-polarization of carbon nuclear spins between scans. T2 values were measured using a Carr-Purcell-Meiboom-Gill (CPMG) sequence for each compound dissolved in 95:5 D2O:H2O and 100% H2O. A 10 ms (or 5 ms ^13C-urea samples) wait-time between 180° pulses was used, and signal was acquired at total echo times spanning 3T2. For both T1- and T2-relaxation curve fitting, spectra were imported into Mnova (Mestrelabs, USA) and the area under the curve (AUC) of the ^13C resonance of interest was integrated. AUC values were exported to Prism 7 (GraphPad Software, USA), plotted against time on the x-axis, and data points were fit to the Bloch equations for T1 and T2.
(§3) When each compound was dissolved in D2O, the exchangeable protons on the nitrogen atoms rapidly exchange with deuterium in the solvent. As described in Table 1, at high field, each compound having protons exchanged with deuterium extended the T1 of ^13C relaxation times directly bonded to —NH or —NH2 residues, respectively. This effect is further illustrated for [6-^13C]-/[6-^13C, ^15N3]-arginine in FIG. 7.

[2] = Thermal equilibrium T1 at high field (14.1T), inversion recovery; assay type: physicochemical; details: for T1 Value (s) D2O: 95:5 D2O:H2O, 100 mM Tris pD 7.4; for T1 Value (s) H2O: 100% H2O, 100 mM Tris pH 7.4
Experimental: as §1, §2, §3

[3] = Hyperpolarized T1 at 1T after dissolution in buffered H2O or D2O; assay type: physicochemical; details: for Hyperpolarized T1 Value (s) D2O: dissolution in 100 mM Tris 1 mM EDTA pD 7.4 D2O; for Hyperpolarized T1 Value (s) H2O: dissolution in 100 mM Tris 1 mM EDTA pH 7.4 H2O
Experimental: Each compound was prepared with a different formulation, as follows: [5-^13C]- and [5-^13C, ^15N]-glutamine was mixed with 1.1 equivalent HCl and dissolved to a final concentration of 1.5 Min H2O:DMSO (65:35). [^13C]— and [^13C, ^15N2]-urea was dissolved to a final concentration of 6M in glycerol. [6-^13C]- and [6-^13C, ^15N3]-arginine was mixed with 1 equivalent HCl and dissolved to a final concentration of 3.2M in H2O. Each of these preparations also contained OX063 radical (General Electric, UK) dissolved to a final concentration of 15 mM. [^13C]—/[^13C, ^15N2]-urea and [6-^13C]-/[6-^13C, ^15N3]-arginine samples were polarized in a 3.35T SpinLab Polarizer (General Electric, UK) for 1.5 hours (0.83K, 93.98 GHz), while: [5-^13C]-/[^13C, ^15N]-glutamine samples were polarized in a 5T SpinLab Polarizer for 2 hours (0.83K, 93.98 GHz). Following polarization, the HP substrate was ejected from the polarizer via rapid dissolution, during which a superheated solution of 100 mM Tris 1 mM EDTA in pH 7.4 H2O or pD 7.4 D2O is run through the sample vial to dissolve the polarized substrate and eject it into a pre-chilled glass vial (−20° C.).

[4] = In vivo 13C EPI imaging of hyperpolarized urea in mouse; details: healthy female Balb/c mouse, monitored for 30 minutes
Experimental: Hyperpolarized [^13C, ^15N2]-urea was studied under clinical imaging conditions. A healthy female Balb/c mouse (12 weeks old) was injected with identical volumes of hyperpolarized [^13C, ^15N]-urea dissolved in either buffered D2O or H2O (FIG. 9A). Both samples were polarized for similar amounts of time and were dissolved to similar final concentrations. Immediately following the end of the injection, an axial 2D ^13C echo-planar imaging (EPI) sequence was initiated with a 3 s repetition time, 16×16 resolution with 2.25 mm×2.25 mm×10 mm voxels.

[5] = target: T1, human recombinant arginase-1 (Homo sapiens, UniProt P05089); assay: Michaelis-Menten kinetics, colorimetric urea assay; assay type: biochemical; details: 37° C., compound as substrate
T1 sequence (P05089 1-322): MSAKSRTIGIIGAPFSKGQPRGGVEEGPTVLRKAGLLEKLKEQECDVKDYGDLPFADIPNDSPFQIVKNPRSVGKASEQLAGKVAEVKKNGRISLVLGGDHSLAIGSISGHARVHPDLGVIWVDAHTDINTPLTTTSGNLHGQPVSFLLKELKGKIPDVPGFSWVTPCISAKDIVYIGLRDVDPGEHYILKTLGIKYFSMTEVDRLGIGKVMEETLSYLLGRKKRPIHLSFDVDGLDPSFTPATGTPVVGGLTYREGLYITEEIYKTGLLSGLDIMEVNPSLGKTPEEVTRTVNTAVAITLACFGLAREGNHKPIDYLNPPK

[6] = FWHM of 13C NMR peaks at 14.1T (quadrupolar relaxation at guanidine-carbon); assay type: physicochemical; details: for FWHM of the guanidine-carbon peak / FWHM of carbon-1: 14.1T 13C NMR; for FWHM of carbon-1: internal standard
Experimental: (§4) To confirm the reduction of quadrupolar relaxation at the guanidine-carbon by ^15N enrichment, ^13C NMR spectra for unlabeled and [6-^13C, 6-^15N3]-L-Arginine-HCl (21, as described in Example 2) was obtained with a 14.1T ^13C NMR. The full width half max (FWHM) of the guanidine-carbon peak was measured, and the FWHM of the carbon-1 peak was used as an internal standard. For hyperpolarized T1 measurements compound 21 was mixed with 1 equivalent HCl and dissolved to a final concentration of 1.3 M in 2:3 H2O:glycerol with 15 mM of a OX063 radical. The sample was polarized for at least 1 h in a SpinSolve polarizer. […] This was performed twice and the calculated T1 values were averaged.
(§5) The FWHM of the guanidine-carbon peak for natural abundance and compound 21 was measured to be 1.4 Hz and 1.0 Hz, respectively, and the FWHM of carbon-1 was 0.9 Hz for both compounds (FIG. 5B).
Therefore, the present methods may be used to follow Arg-1 activity within a tumor and serve as a surrogate readout of TAM infiltration. As such, this information may be used in therapy selection, monitoring therapeutic efficacy, and determining prognosis.

arginase = target: T2, arginase (Mus musculus, UniProt Q61176); assay: In vivo conversion of injected labeled arginine to urea in mouse liver (13C-NMR of extract); details: Balb/c mouse, tail vein 250 μL 20 mM, 1 min post-injection, extrapolated to a 1 g liver
T2 construct: from tissue; host or cells: liver of a living Balb/c mouse (in vivo)
T2 sequence (Q61176 1-323): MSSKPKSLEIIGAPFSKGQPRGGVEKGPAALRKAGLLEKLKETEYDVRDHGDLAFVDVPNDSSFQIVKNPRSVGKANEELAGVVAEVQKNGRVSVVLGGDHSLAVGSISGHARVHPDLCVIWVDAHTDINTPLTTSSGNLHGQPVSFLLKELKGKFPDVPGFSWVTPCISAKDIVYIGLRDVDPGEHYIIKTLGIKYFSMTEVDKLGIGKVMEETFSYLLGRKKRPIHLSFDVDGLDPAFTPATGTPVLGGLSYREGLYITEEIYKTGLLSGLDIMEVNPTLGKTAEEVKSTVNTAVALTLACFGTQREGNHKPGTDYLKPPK
Experimental: In vivo assay: A female, Balb/c mouse was equipped with a tail vein cannula and placed under anesthesia (1.5% isoflurane, 1 L/min for 30 mins), after which it was injected with 250 μL 20 mM [6-^13C, ^15N3]-arginine in 100 mM Tris, 1 mM EDTA pH 7.4 (in addition to another 100 μL of 10 U/mL heparin in saline which was in the dead space of the cannula) over the course of 10 seconds. 1 minute post-injection, the mouse was sacrificed via cervical dislocation, and the liver was collected and frozen in liquid nitrogen. 118 mg of the liver was extracted in 4% perchloric acid, the metabolite extract mixture was dried and subsequently re-suspended in D2O containing the glycine standard and 0.5 mM Gd-DOTA. A ^13C-NMR spectrum was acquired on a 600 MHz spectrometer (FIG. 10).

[7] = Hyperpolarized T1 of arginine guanidine-carbon at 1T; assay type: physicochemical; details: 30° flip angle, 3 s repetition time, average of two
Experimental: as §4, §5

N[13C](N)=O [Urea ^13C, [^13C]-urea]
T2 Value (s) D2O [1]: 0.100 ± 0.002 s
T2 Value (s) H2O [1]: 0.089 ± 0.001 s
T1 Value (s) D2O [2]: 57.24 ± 3.95 s
T1 Value (s) H2O [2]: 31.01 ± 1.18 s
Hyperpolarized T1 Value (s) D2O [3]: 123.8 ± 19.6 s
Hyperpolarized T1 Value (s) H2O [3]: 51.6 ± 5.44 s

[15NH2][13C]([15NH2])=O [Urea ^13C, ^15N2, [^13C, ^15N2]-urea]
morbidity after the two injections [4]: no obvious morbidity
T2 Value (s) D2O [1]: 34.61 ± 0.64 s
T2 Value (s) H2O [1]: 20.12 ± 0.17 s
T1 Value (s) D2O [2]: 57.34 ± 2.04 s
T1 Value (s) H2O [2]: 31.97 ± 1.38 s
Hyperpolarized T1 Value (s) D2O [3]: 115.9 ± 8.5 s
Hyperpolarized T1 Value (s) H2O [3]: 53.3 ± 2.6 s

N=C(N)NCCC[C@H](N)C(=O)O [natural abundance arginine, arginine]
Vmax [5]: 54.8 ± 2.2 s⁻¹
FWHM of the guanidine-carbon peak [6]: 1.4 Hz
FWHM of carbon-1 [6]: 0.9 Hz

[6-^13C, 6-^15N3]-L-Arginine-HCl [Compound 21]
Km [5]: 2040 ± 270 µM
Vmax [5]: 48.2 ± 2.0 s⁻¹
T2 Value (s) D2O [1]: 2.68 ± 0.03 s
T2 Value (s) H2O [1]: 0.82 ± 0.02 s
T1 Value (s) D2O [2]: 9.71 ± 0.26 s
T1 Value (s) H2O [2]: 6.83 ± 0.19 s
[13C, 15N2]-urea produced, share of the total injected arginine dose (arginase): approx. 3%
T1 of the guanidine-carbon [7]: 20.4 ± 0.4 s
Hyperpolarized T1 Value (s) D2O [3]: 31.2 ± 6.8 s
Hyperpolarized T1 Value (s) H2O [3]: 13.3 ± 0.8 s
FWHM of the guanidine-carbon peak [6]: 1.0 Hz
FWHM of carbon-1 [6]: 0.9 Hz
decrease of FWHMguanidine:FWHMcarbon-1 ratio ([6]; labeled versus natural abundance arginine): 29%
